This experiment addresses c-Jun N-terminal kinase, JNK (Homo sapiens) (UniProt P45983+P53779+P45984). Briefly: Inhibition of JNK signalling pathway in human MGC-803 cells assessed as reduction in JNK phosphorylation at 5 to 15 nM incubated for 48 hrs. Conditions: dose 5-15 nM. It is filed as cell-based.

Each structure is given as a SMILES string. The source made the active and inactive calls. The calls are words filed in the database; no cut-off is given here.

Take `CN(c1ccc2c(ccn2C)c1)c1cc(=O)oc2ccccc12`: the inhibition entry is “Active”.
